Assay results from patent publication US20080039508A1, “Treatment Of Tumours” (AQ+PLC, priority 2004, published 2008).

Oc1cccc2cccnc12 [8-hydroxyquinoline]
solubility in aqueous solution: generally insoluble or only poorly soluble
